Our source for the IC50 values is patent publication US20170305922A1, “CARM1 INHIBITORS AND USES THEREOF” (Epizyme, Inc., priority 2014, published 2017).

Assay [1] addresses T1, Human CARM1 (PRMT4) (Homo sapiens, UniProt Q86X55).
T1 construct: Flag-CARM1-His was eluted with 200 ug/ml FLAG peptide in buffer A; made in house; host or cells: HEK 293F cells infected with recombinant baculovirus (pFastBacMam)
T1 sequence (Q86X55 1-585 isoform Q86X55-1): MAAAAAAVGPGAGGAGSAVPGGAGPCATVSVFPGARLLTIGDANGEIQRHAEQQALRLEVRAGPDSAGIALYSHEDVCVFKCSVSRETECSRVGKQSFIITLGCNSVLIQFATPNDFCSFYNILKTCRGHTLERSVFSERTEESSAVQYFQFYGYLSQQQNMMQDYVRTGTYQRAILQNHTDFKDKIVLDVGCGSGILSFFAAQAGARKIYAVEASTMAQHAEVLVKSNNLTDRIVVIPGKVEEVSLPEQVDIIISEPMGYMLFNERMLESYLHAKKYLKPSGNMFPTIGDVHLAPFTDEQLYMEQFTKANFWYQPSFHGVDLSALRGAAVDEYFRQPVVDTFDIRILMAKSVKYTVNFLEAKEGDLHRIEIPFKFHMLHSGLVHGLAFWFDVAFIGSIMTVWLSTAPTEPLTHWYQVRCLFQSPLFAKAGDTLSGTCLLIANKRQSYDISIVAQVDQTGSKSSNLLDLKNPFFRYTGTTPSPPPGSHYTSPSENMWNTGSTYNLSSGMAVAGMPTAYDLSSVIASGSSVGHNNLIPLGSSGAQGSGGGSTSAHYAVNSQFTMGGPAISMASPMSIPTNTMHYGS
Briefly: CARM1 enzyme assay on peptide substrates (3H-SAM Flashplate). The conditions noted are these: Biochemical assay; CARM1 0.25 nM, 3H-SAM 30 nM, peptide 250 nM; read-out: Biochem IC50. The text has this:
S-adenosylmethionine (SAM), S-adenosylhomocysteine (SAH), bicine, Tween20, dimethylsulfoxide (DMSO), bovine skin gelatin (BSG), sodium butyrate and Tris(2-carboxyethyl)phosphine hydrochloride solution (TCEP) were purchased from Sigma-Aldrich at the highest level of purity possible. ^3H-SAM was purchase from American Radiolabeled Chemicals with a specific activity of 80 Ci/mmol. 384-well streptavidin Flashplates were purchased from PerkinElmer.
Peptide representative of human histone H3 residues 16-30 was synthesized with an N-terminal linker-affinity tag motif and a C-terminal amide cap by 21st Century Biochemicals. […] The sequence was Biot-Ahx-[…]-amide and contained a monomethylated arginine at position 26 (SEQ ID NO.:1).
The gene sequence encoding isoform1 containing a deletion of amino acids 539-561 was amplified subsequently and subcloned into pFastBacMam (Viva Biotech).
Recombinant baculovirus were generated according to Bac-to-Bac kit instructions (Life Technologies). Protein over-expression was accomplished by infecting exponentially growing HEK 293F cell culture at 1.3×10^6 cell/ml with virus (MOI=10) in the presence of 8 mM sodium butyrate. Infections were carried out at 37° C. for 48 hours, harvested by centrifugation, and stored at −80° C. for purification.
Column was washed with 500 mM NaCl in buffer A and Flag-CARM1-His was eluted with 200 ug/ml FLAG peptide in buffer A. Pooled fractions were dialyzed in 20 mM Tris, 150 mM NaCl, 5% glycerol and 1 mM DTT, pH 7.8.
The assays were all performed in a buffer consisting of 20 mM Bicine (pH=7.6), 1 mM TCEP, 0.005% BSG, and 0.002% Tween 20, prepared on the day of use. Compounds in 100% DMSO (1 ul) were spotted into a polypropylene 384-well V-bottom plates (Greiner) using a Platemate Plus outfitted with a 384-channel head (Thermo Scientific). DMSO (1 ul) was added to Columns 11, 12, 23, 24, rows A-H for the maximum signal control and 1 ul of SAH, a known product and inhibitor of CARM1, was added to columns 11, 12, 23, 24, rows I-P for the minimum signal control. A cocktail (40 ul) containing the CARM1 enzyme was added by Multidrop Combi (Thermo-Fisher). The compounds were allowed to incubate with CARM1 for 30 min at room temperature, then a cocktail (10 ul) containing ^3H-SAM and peptide was added to initiate the reaction (final volume=51 ul). The final concentrations of the components were as follows: CARM1 was 0.25 nM, ^3H-SAM was 30 nM, peptide was 250 nM, SAH in the minimum signal control wells was 1 mM, and the DMSO concentration was 2%. The assays were stopped by the addition of non-radiolabeled SAM (10 ul) to a final concentration of 300 uM, which dilutes the ^3H-SAM to a level where its incorporation into the peptide substrate is no longer detectable. 50 ul of the reaction in the 384-well polypropylene plate was then transferred to a 384-well Flashplate and the biotinylated peptides were allowed to bind to the streptavidin surface for at least 1 hour before being washed once with 0.1% Tween20 in a Biotek ELx405 plate washer. The plates were then read in a PerkinElmer TopCount plate reader to measure the quantity of ^3H-labeled peptide bound to the Flashplate surface, measured as disintegrations per minute (dpm) or alternatively, referred to as counts per minute (cpm).
where dpm=disintegrations per minute, cmpd=signal in assay well, and min and max are the respective minimum and maximum signal controls.
where top and bottom are the normally allowed to float, but may be fixed at 100 or 0 respectively in a 3-parameter fit. The Hill Coefficient normally allowed to float but may also be fixed at 1 in a 3-parameter fit. Y is the % inhibition and X is the compound concentration.

Assay [2] concerns asymmetric di-methyl PABP1 in RKO cells. Briefly: RKO methylation assay: In Cell Western (ICW) for asymmetric di-methyl PABP1 (PABP1me2a). The conditions noted are these: Homo sapiens, RKO, 48 h, Cellular-based (PABP1me2a) ICW (In Cell Western) assay. The text has this:
RKO adherent cells were purchased from ATCC (American Type Culture Collection), Manassas, Va., USA. DMEM/Glutamax medium, penicillin-streptomycin, heat inactivated fetal bovine serum, 0.05% trypsin and D-PBS were purchased from Life Technologies, Grand Island, N.Y., USA. Odyssey blocking buffer, 800CW goat anti-rabbit IgG (H+L) antibody, and Licor Odyssey infrared scanner were purchased from Licor Biosciences, Lincoln, Nebr., USA. Asymmetric di-methyl PABP1 antibody was purchased from Cell Signaling Technology, Danvers, Mass., USA. Methanol was purchased from VWR, Franklin, Mass., USA. 10% Tween 20 was purchased from KPL, Inc., Gaithersburg, Md., USA. Paraformaldehyde (PFA) was purchased from EM Sciences. DRAQ5 was purchased from Biostatus Limited, Leicestershire, UK.
RKO adherent cells were maintained in growth medium (DMEM/Glutamax medium supplemented with 10% v/v heat inactivated fetal bovine serum and 100 units/mL penicillin-streptomycin) and cultured at 37° C. under 5% CO2.
Cell treatment, In Cell Western (ICW) for detection of asymmetric di-methyl PABP1 and DNA content: RKO cells were seeded in assay medium at a concentration of 30,000 cells per mL to a poly-D-lysine coated 384 well culture plate (BD Biosciences 356697) with 50 μL per well. Compound (100 nL) from a 96-well source plate was added directly to 384 well cell plate. Plates were incubated at 37° C., 5% CO2 for 48 hours. After two days of incubation, plates were brought to room temperature outside of the incubator for ten minutes and blotted on paper towels to remove cell media. Cells were fixed for 20 minutes at room temperature by adding 50 ul of 8% PFA followed by aspiration of supernatant with the Biotek EL406 plate washer. Cells were then permeabilized by addition of 50 μL of ice cold 100% methanol directly to each well and incubated for 30 min at room temperature. After 30 min, plates were transferred to a Biotek EL406 plate washer and washed 2 times with 100 μL per well of wash buffer (1×PBS). Next 60 μL per well of Odyssey blocking buffer (Odyssey Buffer with 0.1% Tween 20 (v/v)) were added to each plate and incubated 1 hour at room temperature. Blocking buffer was removed and 20 μL per well of primary antibody was added (asymmetric-methyl PABP1) diluted 1:400 in Odyssey buffer with 0.1% Tween 20 (v/v)) and plates were incubated overnight (16 hours) at 4° C. Plates were washed 5 times with 100 μL per well of wash buffer. Next 20 μL per well of secondary antibody was added (1:800 800CW goat anti-rabbit IgG (H+L) antibody, 1:2000 DRAQ5 in Odyssey buffer with 0.1% Tween 20 (v/v)) and incubated for 1 hour at room temperature. The plates were washed 5 times with 100 μL per well wash buffer then 2 times with 100 μL per well of water. Plates were allowed to dry at room temperature then imaged on the Licor Odyssey machine which measures integrated intensity at 700 nm and 800 nm wavelengths. Both 700 and 800 channels were scanned.
First, the ratio for each well was determined by:
Each plate included fourteen control wells of DMSO only treatment (minimum inhibition) as well as fourteen control wells for maximum inhibition treated with 20 μM of a reference compound. The average of the ratio values for each control type was calculated and used to determine the percent […] for each test well in the plate. Reference compound was serially diluted three-fold in DMSO for a total of nine test concentrations, beginning at 20 μM.
Percent inhibition was determined and IC50 curves were generated using triplicate wells per concentration of compound.

As a reminder, the IC50 is the concentration that inhibits the measured activity by half.

Take `CNC[C@@H](O)COc1ccc(Cl)c(-c2nc(-c3c(C)noc3C)c(C)c(N3C[C@H]4CN(CC(F)F)C[C@@H]4C3)n2)c1` [Example 29]: the concentration for half-maximal inhibition (IC50) in assay [1] was found to be 10.2 nM; in assay [2] it was 263 nM.

Turning to `CNC[C@@H](O)COc1ccc(Cl)c(-c2nc(-c3c(C)noc3C)c(C)c(N3C[C@H]4CN(CC(F)F)C[C@H]4C3)n2)c1` [Example 30], the figures for the 50% inhibitory concentration (IC50) in assay [1] and in assay [2] were 7 nM and 166 nM, respectively.

Consider `CNC[C@@H](O)COc1ccc(Cl)c(-c2nc(-c3c(C)noc3C)c(C)c(N3C[C@H]4CN(C(=O)C(F)(F)F)C[C@H]4C3)n2)c1` [Example 31], for which the values for the 50% inhibitory concentration (IC50) in assay [1] and in assay [2] were 1.4 nM and 2150 nM, respectively.

Take `CNC[C@@H](O)COc1ccc(Cl)c(-c2nc(-c3c(C)noc3C)c(C)c(N3CC4(CCN(CC(F)F)C4)C3)n2)c1` [Example 32]: the values for the half-inhibitory concentration (IC50) in assay [1] and in assay [2] were 7 nM and 53 nM, respectively.

On to `CNC[C@@H](O)COc1ccc(Cl)c(-c2nc(-c3c(C)noc3C)c(C)c(N3CC4(CCN(C(=O)N(C)C)CC4)C3)n2)c1` [Example 33], for which the IC50 worked out at 7.2 nM in assay [1] and 83 nM in assay [2].

In the case of `CNC[C@@H](O)COc1ccc(Cl)c(-c2nc(-c3c(C)noc3C)c(C)c(N3Cc4c(n(C)c(=O)n(C)c4=O)C3C)n2)c1` (some centres unmarked) [Example 34], the IC50 in assay [1] was 5.1 nM; in assay [2], 120 nM.

Turning to `CNC[C@@H](O)COc1ccc(Cl)c(-c2nc(-c3c(C)noc3C)c(C)c(N3Cc4c(n(C)c(=O)n(C)c4=O)C3)n2)c1` [Example 35], the half-maximal inhibitory concentration (IC50) was 3.7 nM in assay [1] and 412 nM in assay [2].

For `CNC[C@@H](O)COc1ccc(Cl)c(-c2nc(-c3c(C)noc3C)c(C)c(N3Cc4cnc(C5CC5)cc4C3)n2)c1` [Example 36], the half-inhibitory concentration (IC50) amounted to 2.4 nM in assay [1] and 49 nM in assay [2].

As to `CCc1cc2c(cn1)CN(c1nc(-c3cc(OC[C@H](O)CNC)ccc3Cl)nc(-c3c(C)noc3C)c1C)C2` [Example 37], the values for the IC50 in assay [1] and in assay [2] were 2.6 nM and 37 nM, respectively.

Take `CNC[C@@H](O)COc1ccc(F)c(-c2nc(-c3c(C)noc3C)c(C)c(N3CC4(CCN(CC(F)F)C4)C3)n2)c1` [Example 38]: the 50% inhibitory concentration (IC50) in assay [1] came out at 5.7 nM; in assay [2] it was 76 nM.

Take `CNC[C@@H](O)COc1ccc(Cl)c(-c2nc(-c3c(C)noc3C)c(C)c(N3Cc4ccc(Cl)nc4C3)n2)c1` [Example 39]: the IC50 in assay [1] worked out at 2 nM; in assay [2] it was 32 nM.

Take `CNC[C@@H](O)COc1ccc(Cl)c(-c2nc(-c3c(C)noc3C)c(C)c(N3Cc4nc5n(c(=O)c4C3)CCC5)n2)c1` [Example 40]: the IC50 in assay [1] is 2.8 nM; in assay [2] it was 391 nM.

For the compound `CNC[C@@H](O)COc1ccc(Cl)c(-c2nc(-c3c(C)noc3C)c(C)c(N3CC4(CN(C(=O)N(C)C)C4)C3)n2)c1` [Example 41], the IC50 in assay [1] was determined as 8.7 nM; in assay [2], 546 nM.

For the compound `CNC[C@@H](O)COc1ccc(Cl)c(-c2nc(-c3c(C)noc3C)c(C)c(N3CC4(C3)CN(S(C)(=O)=O)C4)n2)c1` [Example 42], the results for the IC50 in assay [1] and in assay [2] were 10.4 nM and 406 nM, respectively.

Regarding `CNC[C@@H](O)COc1ccc(Cl)c(-c2nc(-c3c(C)noc3C)c(C)c(N3CC4(CN(C(=O)OC)C4)C3)n2)c1` [Example 43], the IC50 in assay [1] is 10 nM; in assay [2], 84 nM.

Turning to `CNC[C@@H](O)COc1ccc(Cl)c(-c2nc(-c3c(C)noc3C)c(C)c(N3Cc4cnc(C)cc4C3)n2)c1` [Example 44], the values for the IC50 in assay [1] and in assay [2] were 2.9 nM and 27 nM, respectively.

For the compound `CNC[C@@H](O)COc1ccc(Cl)c(-c2nc(-c3c(C)noc3C)c(C)c(N3CC4(CCN(CC(F)(F)F)C4)C3)n2)c1` [Example 45], the IC50 stood at 11.9 nM in assay [1] and 40 nM in assay [2].

For the compound `CNC[C@@H](O)COc1ccc(Cl)c(-c2nc(-c3c(C)noc3C)c(C)c(N3CC4(CCN(CC(F)(F)F)CC4)C3)n2)c1` [Example 46], the values for the IC50 in assay [1] and in assay [2] were 17.4 nM and 35 nM, respectively.

Take `CNC[C@@H](O)COc1ccc(Cl)c(-c2nc(-c3c(C)noc3C)c(C)c(N3Cc4c(n5c(nc4=O)CCC5)C3)n2)c1` [Example 47]: the results for the IC50 in assay [1] and in assay [2] were 6.3 nM and above 20000 nM, respectively.
